Laboratory results taken from patent US20230278972A1, “SUBSTITUTED HALOALKYL SULFONANILIDE HERBICIDES” (FMC Corporation, priority 2020, published 2023).

How the values were obtained:
Format in all cases: in vivo
[1] = test system: Foxtail, Giant (giant foxtail, Setaria faberi); assay: Test A preemergence, Foxtail, Giant; conditions: Preemergence; for Foxtail, Giant plant response rating: visual injury on 0 to 100 scale (0 no effect, 100 complete control), approximately 10 days; for Plant response rating, Foxtail, Giant: 0 to 100 scale (0 no effect, 100 complete control)
Method in brief: (§1)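 After sowing into a sand-amended loam, pots for the preemergence test were treated by spraying directly onto soil. In parallel, seedlings at the one- to two-leaf stage and 2 to 10 cm tall were treated postemergence with the identical surfactant-containing formulation.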

[2] = test system: pigweed (Amaranthus retroflexus); assay: Test A postemergence, pigweed; conditions: Postemergence, 0 to 100 scale (0 no effect, 100 complete control); for Pigweed plant response rating: visual injury vs untreated controls after approx. 10 days
Method in brief: as §1

[3] = test system: pigweed (Amaranthus retroflexus); assay: Test A preemergence, pigweed; conditions: for Pigweed plant response rating: visual injury on 0 to 100 scale (0 no effect, 100 complete control), approximately 10 days; for Plant response rating, Pigweed: 0 to 100 scale (0 no effect, 100 complete control)
Method in brief: (§2)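 Directed soil spray at planting gave the preemergence treatment, while foliar application to one- to two-leaf seedlings (2–10 cm) gave the postemergence one; pots held a loam and sand mixture and chemicals were carried in a non-phytotoxic solvent with surfactant.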

[4] = test system: barnyardgrass (Echinochloa crus-galli); assay: Test A postemergence, barnyardgrass; conditions: Postemergence, 0 to 100 scale (0 no effect, 100 complete control); for Barnyardgrass plant response rating: visual injury vs untreated controls after approx. 10 days
Method in brief: as §2

[5] = test system: blackgrass (Alopecurus myosuroides); assay: Test A postemergence, blackgrass; conditions: Postemergence, 0 to 100 scale (0 no effect, 100 complete control); for Blackgrass plant response rating: visual injury vs untreated controls after approx. 10 days
Method in brief: as §1

[6] = test system: barnyardgrass (Echinochloa crus-galli); assay: Test A preemergence, barnyardgrass; conditions: Preemergence; for Barnyardgrass plant response rating: visual injury on 0 to 100 scale (0 no effect, 100 complete control), approximately 10 days; for Plant response rating, Barnyardgrass: 0 to 100 scale (0 no effect, 100 complete control)
Method in brief: as §1

[7] = test system: ragweed (common ragweed, Ambrosia artemisiifolia); assay: Test A postemergence, ragweed; conditions: Postemergence, 0 to 100 scale (0 no effect, 100 complete control); for Ragweed plant response rating: visual injury vs untreated controls after approx. 10 days
Method in brief: as §1

[8] = test system: Foxtail, Giant (giant foxtail, Setaria faberi); assay: Test A postemergence, Foxtail, Giant; conditions: Postemergence, 0 to 100 scale (0 no effect, 100 complete control); for Foxtail, Giant plant response rating: visual injury vs untreated controls after approx. 10 days
Method in brief: as §1

[9] = test system: Ryegrass, Italian (Italian ryegrass, Lolium multiflorum); assay: Test A postemergence, Ryegrass, Italian; conditions: Postemergence, 0 to 100 scale (0 no effect, 100 complete control); for Ryegrass, Italian plant response rating: visual injury vs untreated controls after approx. 10 days
Method in brief: as §1

corn (Zea mays) = assay: Test A postemergence, corn; conditions: Postemergence, 0 to 100 scale (0 no effect, 100 complete control); for Corn plant response rating: visual injury vs untreated controls after approx. 10 days
Method in brief: as §1

[10] = test system: Ryegrass, Italian (Italian ryegrass, Lolium multiflorum); assay: Test A preemergence, Ryegrass, Italian; conditions: Preemergence; for Ryegrass, Italian plant response rating: visual injury on 0 to 100 scale (0 no effect, 100 complete control), approximately 10 days; for Plant response rating, Ryegrass, Italian: 0 to 100 scale (0 no effect, 100 complete control)
Method in brief: as §1

[11] = test system: wheat (Triticum aestivum); assay: Test A postemergence, wheat; conditions: Postemergence, 0 to 100 scale (0 no effect, 100 complete control); for Wheat plant response rating: visual injury vs untreated controls after approx. 10 days
Method in brief: as §2

[12] = test system: galium (catchweed bedstraw, Galium aparine); assay: Test A postemergence, galium; conditions: Postemergence, 0 to 100 scale (0 no effect, 100 complete control); for Galium plant response rating: visual injury vs untreated controls after approx. 10 days
Method in brief: as §2

[13] = test system: ragweed (common ragweed, Ambrosia artemisiifolia); assay: Test A preemergence, ragweed; conditions: Preemergence; for Ragweed plant response rating: visual injury on 0 to 100 scale (0 no effect, 100 complete control), approximately 10 days; for Plant response rating, Ragweed: 0 to 100 scale (0 no effect, 100 complete control)
Method in brief: as §1

kochia (Bassia scoparia) [14] = assay: Test A preemergence, kochia; conditions: Preemergence; for Kochia plant response rating: visual injury on 0 to 100 scale (0 no effect, 100 complete control), approximately 10 days; for Plant response rating, Kochia: 0 to 100 scale (0 no effect, 100 complete control)
Method in brief: as §1

kochia (Bassia scoparia) [15] = assay: Test A postemergence, kochia; conditions: Postemergence, 0 to 100 scale (0 no effect, 100 complete control); for Kochia plant response rating: visual injury vs untreated controls after approx. 10 days
Method in brief: as §1

[16] = 125 g ai/ha, visual injury approx. 10 days
[17] = 125 g ai/ha, visual injury, approx. 10 days
[18] = 500 g ai/ha, visual injury approx. 10 days

SMILES: Cc1cc(C)c(N(S(=O)(=O)C(F)(F)F)S(=O)(=O)C(F)(F)F)cc1-c1cc(C(C)C)nn(C)c1=O [Compound 47]
- Foxtail, Giant plant response rating ([1]; 125 g ai/ha): 10
- Plant response rating, Foxtail, Giant ([1]; 500 g ai/ha): 90
- Plant response rating, Pigweed [2, 16]: 0
- Pigweed plant response rating ([2]; 500 g ai/ha): 0
- Pigweed plant response rating ([3]; 125 g ai/ha): 0
- Plant response rating, Pigweed ([3]; 500 g ai/ha): 0
- Plant response rating, Barnyardgrass [4, 16]: 50
- Barnyardgrass plant response rating ([4]; 500 g ai/ha): 80
- Plant response rating, Blackgrass [5, 16]: 10
- Blackgrass plant response rating ([5]; 500 g ai/ha): 50
- Barnyardgrass plant response rating ([6]; 125 g ai/ha): 50
- Plant response rating, Barnyardgrass ([6]; 500 g ai/ha): 90
- Plant response rating, Ragweed [7, 16]: 70
- Ragweed plant response rating ([7]; 500 g ai/ha): 80
- Plant response rating, Foxtail, Giant [8, 16]: 40
- Foxtail, Giant plant response rating ([8]; 500 g ai/ha): 80
- Plant response rating, Ryegrass, Italian [9, 16]: 40
- Ryegrass, Italian plant response rating ([9]; 500 g ai/ha): 80
- Plant response rating, Corn (corn (Zea mays); [16]): 10
- Corn plant response rating (corn (Zea mays); 500 g ai/ha): 0
- Ryegrass, Italian plant response rating ([10]; 125 g ai/ha): 50
- Plant response rating, Ryegrass, Italian ([10]; 500 g ai/ha): 100
- Plant response rating, Wheat [11, 16]: 50
- Wheat plant response rating ([11]; 500 g ai/ha): 60
- Plant response rating, Galium [12, 16]: 30
- Galium plant response rating ([12]; 500 g ai/ha): 40
- Ragweed plant response rating ([13]; 125 g ai/ha): 20
- Plant response rating, Ragweed ([13]; 500 g ai/ha): 60
- Kochia plant response rating (kochia (Bassia scoparia) [14]; 125 g ai/ha): 0
- Plant response rating, Kochia (kochia (Bassia scoparia) [14]; 500 g ai/ha): 0
- Plant response rating, Kochia (kochia (Bassia scoparia) [15]; [16]): 0
- Kochia plant response rating (kochia (Bassia scoparia) [15]; 500 g ai/ha): 0

SMILES: Cc1cc(Cl)c(C(=O)N(C)C)cc1N(S(=O)(=O)C(F)(F)F)S(=O)(=O)C(F)(F)F [Compound 256]
- Plant response rating, Foxtail, Giant [1, 17]: 30
- Foxtail, Giant plant response rating ([1]; 500 g ai/ha): 90
- Plant response rating, Pigweed ([2]; 125 g ai/ha): 60
- Plant response rating, Pigweed [2, 18]: 80
- Plant response rating, Pigweed [3, 17]: 100
- Pigweed plant response rating ([3]; 500 g ai/ha): 100
- Plant response rating, Barnyardgrass ([4]; 125 g ai/ha): 60
- Plant response rating, Barnyardgrass [4, 18]: 50
- Plant response rating, Blackgrass ([5]; 125 g ai/ha): 0
- Plant response rating, Blackgrass [5, 18]: 0
- Plant response rating, Barnyardgrass [6, 17]: 90
- Barnyardgrass plant response rating ([6]; 500 g ai/ha): 100
- Plant response rating, Ragweed ([7]; 125 g ai/ha): 40
- Plant response rating, Ragweed [7, 18]: 80
- Plant response rating, Foxtail, Giant ([8]; 125 g ai/ha): 10
- Plant response rating, Foxtail, Giant [8, 18]: 0
- Plant response rating, Ryegrass, Italian ([9]; 125 g ai/ha): 0
- Plant response rating, Ryegrass, Italian [9, 18]: 50
- Plant response rating, Corn (corn (Zea mays); 125 g ai/ha): 0
- Plant response rating, Corn (corn (Zea mays); [18]): 20
- Plant response rating, Ryegrass, Italian [10, 17]: 80
- Ryegrass, Italian plant response rating ([10]; 500 g ai/ha): 100
- Plant response rating, Wheat ([11]; 125 g ai/ha): 20
- Plant response rating, Wheat [11, 18]: 60
- Plant response rating, Galium ([12]; 125 g ai/ha): 60
- Plant response rating, Galium [12, 18]: 80
- Plant response rating, Ragweed [13, 17]: 60
- Ragweed plant response rating ([13]; 500 g ai/ha): 80
- Plant response rating, Kochia (kochia (Bassia scoparia) [14]; [17]): 60
- Kochia plant response rating (kochia (Bassia scoparia) [14]; 500 g ai/ha): 90
- Plant response rating, Kochia (kochia (Bassia scoparia) [15]; 125 g ai/ha): 50
- Plant response rating, Kochia (kochia (Bassia scoparia) [15]; [18]): 70

SMILES: Cc1cc(F)c(C(=O)N2CCCCC2)cc1NS(=O)(=O)C(F)(F)F [Compound 211]
- Plant response rating, Foxtail, Giant [1, 17]: 60
- Plant response rating, Foxtail, Giant ([1]; 500 g ai/ha): 90
- Plant response rating, Pigweed ([2]; 125 g ai/ha): 40
- Pigweed plant response rating ([2]; 500 g ai/ha): 60
- Plant response rating, Pigweed [3, 17]: 20
- Plant response rating, Pigweed ([3]; 500 g ai/ha): 90
- Plant response rating, Barnyardgrass ([4]; 125 g ai/ha): 0
- Barnyardgrass plant response rating ([4]; 500 g ai/ha): 30
- Plant response rating, Blackgrass ([5]; 125 g ai/ha): 0
- Blackgrass plant response rating ([5]; 500 g ai/ha): 0
- Plant response rating, Barnyardgrass [6, 17]: 60
- Plant response rating, Barnyardgrass ([6]; 500 g ai/ha): 90
- Plant response rating, Ragweed ([7]; 125 g ai/ha): 30
- Ragweed plant response rating ([7]; 500 g ai/ha): 60
- Plant response rating, Foxtail, Giant ([8]; 125 g ai/ha): 0
- Foxtail, Giant plant response rating ([8]; 500 g ai/ha): 50
- Plant response rating, Ryegrass, Italian ([9]; 125 g ai/ha): 40
- Ryegrass, Italian plant response rating ([9]; 500 g ai/ha): 30
- Plant response rating, Corn (corn (Zea mays); 125 g ai/ha): 0
- Corn plant response rating (corn (Zea mays); 500 g ai/ha): 0
- Plant response rating, Ryegrass, Italian [10, 17]: 50
- Plant response rating, Ryegrass, Italian ([10]; 500 g ai/ha): 70
- Plant response rating, Wheat ([11]; 125 g ai/ha): 0
- Wheat plant response rating ([11]; 500 g ai/ha): 0
- Plant response rating, Galium ([12]; 125 g ai/ha): 60
- Galium plant response rating ([12]; 500 g ai/ha): 70
- Plant response rating, Ragweed [13, 17]: 30
- Plant response rating, Ragweed ([13]; 500 g ai/ha): 80
- Plant response rating, Kochia (kochia (Bassia scoparia) [14]; [17]): 80
- Plant response rating, Kochia (kochia (Bassia scoparia) [14]; 500 g ai/ha): 90
- Plant response rating, Kochia (kochia (Bassia scoparia) [15]; 125 g ai/ha): 10
- Kochia plant response rating (kochia (Bassia scoparia) [15]; 500 g ai/ha): 50

SMILES: COc1ccnn(-c2cc(NS(=O)(=O)C(F)(F)F)c(C)cc2C)c1=O [Compound 60]
- Foxtail, Giant plant response rating ([1]; 125 g ai/ha): 80
- Plant response rating, Foxtail, Giant ([1]; 500 g ai/ha): 90
- Plant response rating, Pigweed [2, 16]: 80
- Pigweed plant response rating ([2]; 500 g ai/ha): 90
- Pigweed plant response rating ([3]; 125 g ai/ha): 100
- Plant response rating, Pigweed ([3]; 500 g ai/ha): 100
- Plant response rating, Barnyardgrass [4, 16]: 70
- Barnyardgrass plant response rating ([4]; 500 g ai/ha): 70
- Plant response rating, Blackgrass [5, 16]: 40
- Blackgrass plant response rating ([5]; 500 g ai/ha): 70
- Barnyardgrass plant response rating ([6]; 125 g ai/ha): 90
- Plant response rating, Barnyardgrass ([6]; 500 g ai/ha): 90
- Plant response rating, Ragweed [7, 16]: 50
- Ragweed plant response rating ([7]; 500 g ai/ha): 70
- Plant response rating, Foxtail, Giant [8, 16]: 60
- Foxtail, Giant plant response rating ([8]; 500 g ai/ha): 90
- Plant response rating, Ryegrass, Italian [9, 16]: 70
- Ryegrass, Italian plant response rating ([9]; 500 g ai/ha): 80
- Plant response rating, Corn (corn (Zea mays); [16]): 10
- Corn plant response rating (corn (Zea mays); 500 g ai/ha): 60
- Ryegrass, Italian plant response rating ([10]; 125 g ai/ha): 80
- Plant response rating, Ryegrass, Italian ([10]; 500 g ai/ha): 90
- Plant response rating, Wheat [11, 16]: 50
- Wheat plant response rating ([11]; 500 g ai/ha): 70
- Plant response rating, Galium [12, 16]: 90
- Galium plant response rating ([12]; 500 g ai/ha): 90
- Ragweed plant response rating ([13]; 125 g ai/ha): 30
- Plant response rating, Ragweed ([13]; 500 g ai/ha): 70
- Kochia plant response rating (kochia (Bassia scoparia) [14]; 125 g ai/ha): 90
- Plant response rating, Kochia (kochia (Bassia scoparia) [14]; 500 g ai/ha): 90
- Plant response rating, Kochia (kochia (Bassia scoparia) [15]; [16]): 40
- Kochia plant response rating (kochia (Bassia scoparia) [15]; 500 g ai/ha): 80
